Laboratory results reported in ChEMBL document CHEMBL1811872, “Tryptophan 2,3-dioxygenase (TDO) inhibitors. 3-(2-(pyridyl)ethenyl)indoles as potential anticancer immunomodulators” (J Med Chem, 2011).

Key:
[1] = target: Tryptophan 2,3-dioxygenase (Mus musculus, UniProt P48776); assay: Inhibition of mouse TDO expressed in mouse P815B cells assessed as inhibition of tryptophan catabolism by measuring kynurenine production after 8 hrs by HPLC analysis; format: cell-based
[2] = Cytotoxicity against mouse P815B cells […] by MTT assay; format: functional; details: read-out: LD50 (the source's name)

Sequence of Tryptophan 2,3-dioxygenase (P48776 whole entry): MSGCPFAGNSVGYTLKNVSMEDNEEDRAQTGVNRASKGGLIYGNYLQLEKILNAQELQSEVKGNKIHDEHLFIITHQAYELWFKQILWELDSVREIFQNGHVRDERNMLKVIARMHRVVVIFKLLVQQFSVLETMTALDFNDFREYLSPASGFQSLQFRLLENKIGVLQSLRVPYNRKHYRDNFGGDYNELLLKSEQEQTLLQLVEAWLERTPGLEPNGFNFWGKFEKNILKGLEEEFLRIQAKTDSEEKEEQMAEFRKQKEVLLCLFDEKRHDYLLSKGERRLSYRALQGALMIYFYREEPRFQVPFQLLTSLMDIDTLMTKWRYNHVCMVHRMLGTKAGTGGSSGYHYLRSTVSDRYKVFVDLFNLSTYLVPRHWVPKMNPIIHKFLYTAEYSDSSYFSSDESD

C(=C\c1c[nH]c2ccccc12)/c1ccncc1
IC50 [1]: 20 µM
CC50 [2]: > 100 µM

Fc1ccc2[nH]cc(/C=C/c3cccnc3)c2c1
IC50 [1]: 5 µM
CC50 [2]: > 80 µM

C(=C\c1c[nH]c2ccccc12)/c1ccccn1
IC50 [1]: 20 µM
CC50 [2]: > 100 µM

N#CSCCc1c[nH]c2ccccc12
IC50 [1]: 44 µM
CC50 [2]: > 80 µM

C(=C\c1ccc2[nH]ccc2c1)/c1cccnc1
IC50 [1]: > 200 µM
CC50 [2]: > 80 µM

C(=C\c1c[nH]c2c1ccc1ccccc12)/c1cccnc1
IC50 [1]: > 200 µM
CC50 [2]: > 80 µM

C(=C\c1c[nH]c2ccncc12)/c1cccnc1
IC50 [1]: > 200 µM
CC50 [2]: > 80 µM

C(=C\c1c[nH]c2ncccc12)/c1cccnc1
IC50 [1]: 18 µM
CC50 [2]: > 80 µM

C(=C\c1n[nH]c2ccccc12)/c1cccnc1
IC50 [1]: > 200 µM
CC50 [2]: > 80 µM

C(=C\c1c[nH]cn1)/c1cccnc1
IC50 [1]: > 200 µM
CC50 [2]: > 80 µM

Fc1ccc(-c2n[nH]cc2/C=C/c2cccnc2)cc1
IC50 [1]: > 200 µM
CC50 [2]: > 80 µM

C(=C\c1ccc2ccccc2c1)/c1cccnc1
IC50 [1]: > 200 µM
CC50 [2]: > 80 µM

Cn1cc(/C=C/c2cccnc2)c2ccc(F)cc21
IC50 [1]: > 200 µM
CC50 [2]: > 200 µM

Cc1[nH]c2ccccc2c1/C=C/c1cccnc1
IC50 [1]: > 200 µM
CC50 [2]: > 200 µM

C(=C\c1c(-c2ccccc2)[nH]c2ccccc12)/c1cccnc1
IC50 [1]: > 200 µM
CC50 [2]: > 200 µM

Fc1cccc2[nH]cc(/C=C/c3cccnc3)c12
IC50 [1]: 10 µM
CC50 [2]: > 80 µM

Clc1cccc2[nH]cc(/C=C/c3cccnc3)c12
IC50 [1]: > 40 µM
CC50 [2]: 40 µM

Brc1cccc2[nH]cc(/C=C/c3cccnc3)c12
IC50 [1]: > 200 µM
CC50 [2]: > 200 µM

N#Cc1cccc2[nH]cc(/C=C/c3cccnc3)c12
IC50 [1]: > 200 µM
CC50 [2]: > 200 µM

O=[N+]([O-])c1cccc2[nH]cc(/C=C/c3cccnc3)c12
IC50 [1]: > 200 µM
CC50 [2]: > 200 µM

COC(=O)c1cccc2[nH]cc(/C=C/c3cccnc3)c12
IC50 [1]: > 200 µM
CC50 [2]: > 200 µM

Clc1ccc2[nH]cc(/C=C/c3cccnc3)c2c1
IC50 [1]: 20 µM
CC50 [2]: > 80 µM

Brc1ccc2[nH]cc(/C=C/c3cccnc3)c2c1
IC50 [1]: 40 µM
CC50 [2]: 20 µM

Cc1ccc2[nH]cc(/C=C/c3cccnc3)c2c1
IC50 [1]: > 200 µM
CC50 [2]: > 200 µM

COc1ccc2[nH]cc(/C=C/c3cccnc3)c2c1
IC50 [1]: 40 µM
CC50 [2]: > 80 µM

N#Cc1ccc2[nH]cc(/C=C/c3cccnc3)c2c1
IC50 [1]: > 200 µM
CC50 [2]: > 200 µM

O=[N+]([O-])c1ccc2[nH]cc(/C=C/c3cccnc3)c2c1
IC50 [1]: > 200 µM
CC50 [2]: > 200 µM

COC(=O)c1ccc2[nH]cc(/C=C/c3cccnc3)c2c1
IC50 [1]: > 200 µM
CC50 [2]: > 200 µM

O=C(O)c1ccc2[nH]cc(/C=C/c3cccnc3)c2c1
IC50 [1]: > 200 µM
CC50 [2]: > 200 µM

Clc1ccc2c(/C=C/c3cccnc3)c[nH]c2c1
IC50 [1]: 20 µM
CC50 [2]: > 40 µM

Brc1ccc2c(/C=C/c3cccnc3)c[nH]c2c1
IC50 [1]: > 200 µM
CC50 [2]: > 200 µM

Cc1ccc2c(/C=C/c3cccnc3)c[nH]c2c1
IC50 [1]: > 200 µM
CC50 [2]: > 200 µM

COc1ccc2c(/C=C/c3cccnc3)c[nH]c2c1
IC50 [1]: > 200 µM
CC50 [2]: > 200 µM

Oc1ccc2c(/C=C/c3cccnc3)c[nH]c2c1
IC50 [1]: > 200 µM
CC50 [2]: > 200 µM

COC(=O)c1ccc2c(/C=C/c3cccnc3)c[nH]c2c1
IC50 [1]: > 200 µM
CC50 [2]: > 200 µM

Fc1cccc2c(/C=C/c3cccnc3)c[nH]c12
IC50 [1]: 50 µM
CC50 [2]: > 400 µM

Clc1cccc2c(/C=C/c3cccnc3)c[nH]c12
IC50 [1]: > 200 µM
CC50 [2]: > 200 µM

Brc1cccc2c(/C=C/c3cccnc3)c[nH]c12
IC50 [1]: > 20 µM
CC50 [2]: 20 µM

Cc1cccc2c(/C=C/c3cccnc3)c[nH]c12
IC50 [1]: > 200 µM
CC50 [2]: > 200 µM

COc1cccc2c(/C=C/c3cccnc3)c[nH]c12
IC50 [1]: > 200 µM
CC50 [2]: > 200 µM

Fc1ccc2c(/C=C/c3ccccn3)c[nH]c2c1
IC50 [1]: 3 µM
CC50 [2]: 100 µM

C/C=C/c1c[nH]c2ccccc12
IC50 [1]: > 80 µM
CC50 [2]: > 80 µM

Fc1ccc2c(/C=C/c3ccccc3)c[nH]c2c1
IC50 [1]: 40 µM
CC50 [2]: 40 µM

Fc1ccc2c(/C=C/c3ccc4ccccc4c3)c[nH]c2c1
IC50 [1]: > 200 µM
CC50 [2]: > 200 µM

Fc1cccc(/C=C/c2c[nH]c3cc(F)ccc23)c1
IC50 [1]: 10 µM
CC50 [2]: 40 µM

Fc1ccc2c(/C=C/c3cccc(Cl)c3)c[nH]c2c1
IC50 [1]: > 200 µM
CC50 [2]: > 200 µM

Fc1ccc2c(/C=C/c3cccc(Br)c3)c[nH]c2c1
IC50 [1]: > 200 µM
CC50 [2]: > 200 µM

COc1cccc(/C=C/c2c[nH]c3cc(F)ccc23)c1
IC50 [1]: 10 µM
CC50 [2]: 40 µM

N#Cc1cccc(/C=C/c2c[nH]c3cc(F)ccc23)c1
IC50 [1]: 1 µM
CC50 [2]: 20 µM

O=[N+]([O-])c1cccc(/C=C/c2c[nH]c3cc(F)ccc23)c1
IC50 [1]: 3 µM
CC50 [2]: 40 µM

N#C/C=C/c1c[nH]c2ccccc12
IC50 [1]: 13 µM
CC50 [2]: > 80 µM

N#C/C=C\c1c[nH]c2ccccc12
IC50 [1]: > 80 µM
CC50 [2]: > 80 µM

N#C/C=C/c1c[nH]c2cc(F)ccc12
IC50 [1]: 3 µM
CC50 [2]: > 80 µM

C(=C\c1c[nH]c2ccccc12)/c1nnn[nH]1
IC50 [1]: 10 µM
CC50 [2]: > 80 µM

COC(=O)/C=C/c1c[nH]c2cc(F)ccc12
IC50 [1]: 2 µM
CC50 [2]: 40 µM

OC/C=C/c1c[nH]c2cc(F)ccc12
IC50 [1]: 80 µM
CC50 [2]: 100 µM

N#C/C(=C\c1c[nH]c2cc(F)ccc12)c1ccccc1
IC50 [1]: > 80 µM
CC50 [2]: > 80 µM

CCOC(=O)/C(C#N)=C/c1c[nH]c2cc(F)ccc12
IC50 [1]: > 80 µM
CC50 [2]: > 80 µM

N#C/C(=C\c1c[nH]c2cc(F)ccc12)C(=O)O
IC50 [1]: > 80 µM
CC50 [2]: > 80 µM

O=C(O)C(=Cc1c[nH]c2cc(F)ccc12)C(=O)O
IC50 [1]: > 80 µM
CC50 [2]: > 80 µM

c1cncc(CCc2c[nH]c3ccccc23)c1
IC50 [1]: 80 µM
CC50 [2]: > 80 µM

C(#Cc1c[nH]c2ccccc12)c1cccnc1
IC50 [1]: 6 µM
CC50 [2]: 200 µM

c1cncc(CCCc2c[nH]c3ccccc23)c1
IC50 [1]: > 200 µM
CC50 [2]: > 200 µM

N#CCc1c[nH]c2ccccc12
IC50 [1]: > 80 µM
CC50 [2]: > 80 µM

N#CCCc1c[nH]c2ccccc12
IC50 [1]: > 80 µM
CC50 [2]: > 80 µM

c1ccc2c(-c3nnn[nH]3)c[nH]c2c1
IC50 [1]: > 80 µM
CC50 [2]: > 80 µM

c1ccc2c(Cc3nnn[nH]3)c[nH]c2c1
IC50 [1]: > 80 µM
CC50 [2]: > 80 µM

c1ccc2c(CCc3nnn[nH]3)c[nH]c2c1
IC50 [1]: > 80 µM
CC50 [2]: > 80 µM

Fc1ccc2c(/C=C/c3ccncc3)c[nH]c2c1
IC50 [1]: 3 µM
CC50 [2]: 200 µM

C(=C\c1c[nH]c2ccccc12)/c1cccnc1
IC50 [1]: 1 µM
CC50 [2]: > 80 µM

O=C(O)/C=C/c1c[nH]c2ccccc12
IC50 [1]: 18 µM
CC50 [2]: > 400 µM

N#Cc1c[nH]c2ccccc12
IC50 [1]: > 80 µM
CC50 [2]: > 80 µM
